These results are taken from US9765061B2, “Trail enhancers for the selective killing of cancer cells” (The Scripps Research Institute, priority 2013, dated 2017).

One data set concerns A549 cell line. Description: Viability of A549 cells, XTT-based assay, with or without TRAIL. It counts as cell-based, human. The method, then:
FIG. 4: C12 sensitizes long cancer cell line A549 to TRAIL. (A) Viability of cells was examined after 24-hour incubation in media containing TRAIL (50 ng/ml), compound (C12) (1 μM), compound (C12R) (25 μM) or the indicated combination of TRAIL (T) with (C12) or (C12R). The chemical structures of (C12) and its stereoisomer (C12R) are shown on the right. (B) Viability of cells was examined after 24-hour incubation in media, containing TRAIL (50 ng/ml) and the indicated doses of C12. Viable cells remaining after the treatment were determined as a function of mitochondrial activity of living cells according to XTT-based toxicology assay kit (Sigma) and are shown as a percentage of viable untreated cells.
To test this hypothesis, we examined the effect of C12 in vitro on the activity of TRAIL against A549 cell line derived from a cancer sample of the human lung.
(§1) Cytotoxicity was determined by using the XTT-based toxicology assay kit (Sigma, St. Louis, Miss.) in accordance with the manufacturer's instructions. For some experiments, to confirm the apoptotic nature of toxicity, cells were analyzed using protocols and instructions of the Annexin V-FITC apoptosis detection kit (Biovision, Mountain View, Calif.). In addition, caspase 3, 8 and 9 activities were determined by colorimetric assays (R&D System), and the data are expressed as fold increases compared to the values of untreated or control-treated cells (n=5).
(Tetrazolium dyes change colour on reduction, which living cells bring about.)

Data set [1] relates to bone marrow-derived macrophages (BMDM). The data set is described as follows: Responses of bone marrow-derived macrophages to AHLs (toxicity, Western blot). It counts as cell-based, mouse. The procedure: FIG. 13. AHL-mediated inhibition of inflammation-induced NF-κB signaling is sufficient for rendering tumors susceptible to TRAIL-induced apoptosis. a) Western blot analysis of PARP cleavage in cancer cells stimulated for 3 h with TRAIL or its combination with different AHLs as indicated, b) Western blot analysis of PARP cleavage as well as phosphorylated forms of eIF2α and p38 in extracts from bone marrow-derived macrophages (BMDM) stimulated with (C12) or (3-N2), i.e., (S)-(3-N2), as indicated, c) Western blot analysis of PARP cleavage and temporal profiles of IκBα expression in BMDM extracts prepared after treatment with LPS or its combination with (C12) or (3-N2). d) Inhibitory effect of (C12) and its derivatives on LPS-induced TNF production in BMDM. e) Lung cancer cells were exposed to (3-N2) (10 μM), TRAIL (0.5 ng/ml), TNF (20 ng/ml) or their combinations as indicated. After 2 h, cell lysates were prepared and analyzed by Western blot for PARP cleavage, IκBα and actin.
Mice, bone marrow-derived macrophages and other cell culture, C57BL/6 mice were purchased from the Jackson Laboratory (Bar Harbor, Me.). Bone marrow-derived macrophages (BMDM) and murine embryonic fibroblasts (MEF) were prepared by using standard protocols that were approved by the TSRI Animal Care and Use Committee. L929/NCTC clone 929 (connective tissue, mouse) cell lines were purchased from ATCC (Manassas, Va.). MEFs and L929 cell line were maintained in GM (see above). BMDM were cultured in 70% GM and 30% L929 conditioned medium. In general, cells (˜60-70% confluence) were incubated in fresh medium for 12-14 h before stimulation.
(§2) Antibodies and Western blot analysis. Anti-eIF2α, phospho-eIF2α[…](p-eIF2α), p38, p-p38 (Thr180/Tyr132), p-RelA (Ser536), p-I κB ? 32/36), PARP 20 antibodies were purchased from Cell Signaling; anti-RelA, I κB α, IκBβ were from Santa Cruz Biotechnology. Cellular extracts were prepared and analyzed by Western blot assay as previously described.^E3
Cell stimulation. In all experiments, BMDM were stimulated with LPS (100 ng/ml), AHL (10-25 μM; usually BMDM and primary macrophages were stimulated by 25 μM of C12) or their combination as indicated in the figure legends. If not indicated, cancer and normal cells were stimulated with 40 ng/ml of TNFα, 20 ng/ml TRAIL and 10 μM (in case of cancer cells) or 25 μM (in case of normal cells) of AHL.
(In general: Immunoblotting shows a protein as a band on a membrane.)

Data set [2] deals with primary human hepatocytes. The data set is described as follows: Viability and apoptosis of primary human hepatocytes from normal donors. It counts as cell-based. Conditions: hepatocytes from normal donors. The procedure: FIG. 8: Safety and pro-apoptotic. activity of (C12). Cells were incubated with TRAIL, (C12), […] (Bor) or a combination of TRAIL and (C12) or Bor as indicated, and cell viability (top panels) or the cleavage of PARP (bottom panels) was determined. (A) Lung cancer cell line A549. (B) Primary human hepatocytes from normal donor.
Therefore, to assess a potential utility of C12 for anti-cancer therapy, we compared the effects of these two compounds—(C12) and bartezomid (Bor)—on TRAIL-mediated apoptosis in cancerous A549 cells and primary human hepatocytes.
Cancer and normal cell culture. Lung cancer cell line A549 and colon cancer cell line HT29 were purchased from ATCC. Breast cancer cell line MDA-MB-468 was received from J. C. Reed (The Burnham Institute, La Jolla, Calif.). Cell lines were maintained in growth medium (GM): DMEM medium (4.5 g/l glucose) supplemented with 10% FBS (HyClone, Logan, Utah), L-glutamine, penicillin/streptomycin and nonessential ammo acids (Invitrogen, Carlsbad, Calif.). Normal human bronchial epithelial (NHBE) cells and normal human mammary epithelial (NHME) cells were obtained from Cambrex (East Rutherford, N.J.) and cultured as recommended by the manufacturer. Normal human colon smooth muscle cells were obtained from ScienCell Research Lab (San Diego, Calif.) and cultured as recommended by the manufacturer. Primary cultures of human hepatocytes (freshly plated; not cryopreserved) and culture medium were obtained from Celsis In Vitro Technologies (Baltimore, Md.). Upon receipt of the cells, the medium was gently aspirated from each well and replenished with InVitroGRO HI medium supplemented with Torpedo Antibiotic Mix (Celsis), and the plates were kept in a 5% CO2, at 37° C. in an incubator at saturating humidity. After 2-4 h, cells were stimulated as described in the text and FIG. legends.
as §1

In a further data set the test system is HeLa cell line. The data set is described as follows: PARP cleavage in HeLa cells. It counts as cell-based, human. Conditions: FIG. 3C. The procedure:
FIG. 3: Sensitivity of cancerous and non-cancerous cells to apoptosis induced by TNF, C12 or a combination of C12 and TNF. Cells were incubated with TNF, (C12) or a combination of TNF and (C12) as indicated, and the cleavage of PARP (an apoptotic marker) was determined by Western blot. (A and B) Breast cancer MCF-7 cells transfected with control vector (Vector) and vector expressing Bcl-2 or CLARP. (C) HeLa cell line. (D) Normal human bronchial epithelial cells (NHBE).
Similar experiments were conducted by using normal human bronchial epithelial cells and HeLa cell line as an example of transformed cells. We observed that both HeLa and normal cells were resistant to pro-apoptotic effects of TNF (FIG. 3C and 3D). […] In addition, two stimuli—C12 and TNF—work synergistically against cancerous cells, although normal cells stay intact.
as §2

For `CCCCCCCCCC(=O)CC(=O)N[C@H]1CCOC1=O` [Compound 1, N-(3-oxo-dodecanoyl) homoserine lactone], in the data set with A549 cell line (C12 1 μM or 25 μM, C12R 25 μM, no TRAIL), the “cell growth and viability, compound alone” value is reported as “practically unchanged”. Also, in the data set with A549 cell line (FIG. 8A), the “sensitivity of A549 cells to TRAIL in the presence of compound” value is reported as “comparable increase in sensitivity”. In the data set on A549 cell line (Homo sapiens, A549, 100 nM of C12 and 50 ng/ml of TRAIL, 24-hours incubation, read-out: cells that lost their viability), the cytotoxicity at 0.1 µM was over 50%. The “viability of A549 cells” value in the data set with A549 cell line (combination of TRAIL (50 ng/ml) and C12 (1 μM)) was “dramatically reduced”. In addition, the “eIF2α phosphorylation in macrophages” value in data set [1] (Western blot, FIG. 13b) is “induced eIF2α phosphorylation in a similar fashion”. Moreover, in data set [1] (macrophages activated by LPS, FIG. 13c), the “blocking LPS-induced re-synthesis of IκBα” value was “equally effective”. Besides, in data set [2], the “toxicity to human hepatocytes, compound alone or in combination with TRAIL” value was “practically healthy and intact”. The “cleavage of PARP, compound alone” value with HeLa cell line is “induced the cleavage of PARP”.
